Laboratory results: patent US4652561A, “Naphtho[1,2-b]-1,4-thiazepinones” (Hoffmann-La Roche Inc., priority 1986, dated 1987)
pIC50: −log10 of the molar value.

Assays:
[1] = system: Guinea Pig Ileum; test: Guinea pig ileum assay - tonic contraction (calcium channel blocking activity); conditions: inhibition of K^+ (80 mM) induced tonic contraction, 37° C.
Description: GUINEA PIG ILEUM ASSAY--TONIC CONTRACTION
Male guinea-pigs weighing from 300-400 grams were stunned and bled. The abdomen was opened and 10-15 cm of terminal ileum was carefully removed and cleaned and placed in Tyrode's Solution of the following composition: NaCl (8 g/l), KCl (0.2 g/l), MgCl2 (0.2 g/l.). CaCl2 (0.2 g/l). NaH2 PO4 (0.05 g/l), NaHCO3 (1.0 g/l) and Glucose (1 g/l). The solution was maintained at 37° C. and gassed with 95%O2 and 5%CO2. Portions of the ileum were placed over a glass rod, a shallow incision was made the length of the mesenteric attachment just severing the outer-longitudinal muscle layer. The longitudinal muscle was separated from the underlying circular muscle by gentle dissection (Rang, H. P. Annals of N.Y. Academy of Science Vol. 144, page 756, (1964)). The tissue was fixed at one end to a tissue holder, the other end was connected by a thread to a force transducer and suspended in a muscle bath containing Tyrode's Solution maintained at 37° C. and gassed with 95%O2 and 5%CO2. An initial tension of 500 mg was applied and the tissue allowed to equilibrate for 60 minutes prior to the start of the study. During this period the tissue was washed every 16 minutes. Each preparation, at 16 minute intervals, was challenged with KCl sufficient to yield a bath K^+ concentration of 80 mMK for 2 minutes, then washed with fresh solution. The 16 minute interval between K^+ challenges was maintained throughout the study. Upon stabilization of the responses to the K^+ challenge the test compound (potential calcium entry antagonist) was introduced into the bath 2 minutes prior to and during the 2 minute exposure to K^+ after which the bath was cleared and washed with fresh solution. Logarithmically increasing doses (up to 10^-4 M) of the potential antagonist were administered as the study progressed.
The measure of compound's ability to inhibit the tonic contraction of muscle is a measure of its activity as a calcium channel blocking agent.

[2] = system: SH rat; test: Blood pressure lowering in the spontaneously hypertensive (SH) rat; format: in vivo; conditions: 50 mg/kg p.o.; for Duration: duration of SBP lowering
Description: BLOOD PRESSURE LOWERING IN THE SPONTANEOUSLY HYPERTENSIVE (SH) RAT
Six male SH rats were used for each test. Body weights were recorded. Six pre-drug control recordings of the systolic blood pressure (mmHg) were measured from the tails of the rats which were unanesthetized and restrained in holders. The rats were previously heated for 5-10 minutes at 32°-34° C. The systolic blood pressure was measured by an occlusion cuff.
The compounds were administered orally to the rats in a composition that included 5% compound and the remainder gum acacia. The blood pressure of the rats was measured over a period of hours following oral administration.
The measure of a compound's ability to decrease blood pressure, is a measure of its ability as an anti-hypertensive agent.

pIC50 [1] | Structure (SMILES) | Systolic Blood Pressure (SBP) in the SH rat, SBP (Δ mm Hg) [2] [mm Hg] | Duration [2] [h]
4.20 | COc1ccc([C@@H]2Sc3c(ccc4ccccc34)N(CCN(C)C)C(=O)[C@H]2O)cc1 (racemic) [G, (±)-trans-2,3-dihydro-3-hydroxy-2-(4-methoxyphenyl)-5-[2-(dimethylamino)ethyl]naphtho[1,2-b]-1,4-thiazepin-4(5H)-one] | – | –
4.34 | COc1ccc([C@@H]2Sc3c(ccc4ccccc34)N(CCN(C)C)C(=O)[C@H]2OC(C)=O)cc1 (racemic) [H, (±)-trans-3-(acetyloxy)-2,3-dihydro-2-(4-methoxyphenyl)-5-[2-(dimethylamino)ethyl]naphtho[1,2-b]-1,4-thiazepin-4(5H)-one] | – | –
4.25 | COc1ccc([C@@H]2Sc3c(ccc4ccccc34)N(CCN(C)C)C(=O)[C@@H]2O)cc1 [E, (-)-cis-2,3-dihydro-3-hydroxy-2-(4-methoxyphenyl)-5-[2-(dimethylamino)ethyl]naphtho[1,2-b]-1,4-thiazepin-4(5H)-one] | – | –

The next lines start with the compound.

Structure (SMILES) | pIC50 [1] | Systolic Blood Pressure (SBP) in the SH rat, SBP (Δ mm Hg) [2] [mm Hg] | Duration [2] [h]
COc1ccc([C@@H]2Sc3c(ccc4ccccc34)N(CCN(C)C)C(=O)[C@@H]2O)cc1 (racemic) [C, (±)-cis-5-[2-(dimethylamino)ethyl]-2,3-dihydro-3-hydroxy-2-(4-methoxyphenyl)naphtho[1,2-b]-1,4-thiazepin-4(5H)-one] | 6.28 | – | –
COc1ccc([C@@H]2Sc3c(ccc4ccccc34)N(CCN(C)C)C(=O)[C@@H]2OC(C)=O)cc1 (racemic) [D, (±)-cis-3-(acetyloxy)-2,3-dihydro-2-(4-methoxyphenyl)-5-[2-(dimethylamino)ethyl]naphtho[1,2-b]-1,4-thiazepin-4(5H)-one] | 6.64 | – | –
COc1ccc([C@@H]2Sc3c(ccc4ccccc34)N(CCN(C)C)C(=O)[C@@H]2OC(C)=O)cc1 [A, (+)-cis-3-(acetyloxy)-2,3-dihydro-2-(4-methoxyphenyl)-5-[2-(dimethylamino)ethyl]naphtho[1,2-b]-1,4-thiazepin-4(5H)-one] | 5.89 | -67 ± 7 | 19
COc1ccc([C@@H]2Sc3c(ccc4ccccc34)N(CCN(C)C)C(=O)[C@@H]2O)cc1 [B, (+)-cis-5-[2-(dimethylamino)ethyl]-2,3-dihydro-3-hydroxy-2-(4-methoxyphenyl)naphtho[1,2-b]-1,4-thiazepin-4(5H)-one] | 5.96 | -63 ± 9 | 24
